The source of these data is US20200246284A1 (Academia Sinica, priority 2015, published 2020).

Where two headings read alike, the source gives them in different places.

Data set [1] concerns normal human, murine or primate cell and tissue types. Nature of the data set: Cytotoxicity, panel of normal tissues (MTT, alamar blue). Format: cell-based. Background: Alamar Blue is a resazurin reagent that responds to reducing activity.
A further data set deals with CV1 renal fibroblasts. Put plainly: Cytotoxicity normal tissue 72 hr. Format: cell-based, African green monkey (Cercopithecus aethiops). Conditions: Chlorocebus sabaeus, Fibroblast; CV1 primate, 72 hr; read-out: IC50.
The subject of a further data set is MS-5 adult BM stroma. Put plainly: Cytotoxicity normal tissue 72 hr. Conditions: MS-5 (mouse), 72 hr; listed as TMZ; read-out: IC50. Format: cell-based, mouse.
Another data set deals with A204 rhabdomyosarcoma. Nature of the data set: Cytotoxicity sarcoma. Conditions: read-out: cytotoxic activity (IC50), A204 (rhabdoid?).
The subject of data set [2] is Rhabdomyosarcoma cell lines. Put plainly: Cytotoxicity, sarcoma panel (Table 30). The format is cell-based. Conditions: Homo sapiens, 5/6 rhabdomyosarcoma lines.
The next data set concerns JEKO-1. Put plainly: Cytotoxicity mantle cell lymphoma.
A further data set has as its system FBMC fetal BM stroma. Put plainly: Cytotoxicity normal tissue 72 hr. Format: cell-based. Conditions: Homo sapiens.
Data set [3] concerns primary patient Ewing's sarcoma xenograft in NSG mice. Put plainly: Cyclophosphamide-resistant primary Ewing's sarcoma xenograft. Format: in vivo, mouse. Conditions: cyclophosphamide 70 mg/kg i.p. x3, then BO-1055 30 mg/kg iv x4.
A further data set has as its system H647. Format: cell-based, human.
The next data set deals with CALU-6. Format: cell-based, human.
In the next data set the test system is H1781. The format is cell-based, human.
A further data set relates to H3122. The format is cell-based, human.
A further data set concerns H1395. Format: cell-based, human.
The next data set concerns H3255. The format is cell-based, human.
The test system of data set [4] is 16HBE SV40+ bronchial epithelium. The format is cell-based, human.
Another data set relates to H1650. The format is cell-based, human.
The subject of data set [5] is IMR90 fetal lung myofibroblast. Put plainly: Cytotoxicity normal tissue 72 hr. Format: cell-based, human.
The next data set has as its system PC9. Format: cell-based, human.
In the next data set the test system is HCC2450. Format: cell-based, human.
Another data set deals with H525. Format: cell-based, human.
Data set [6] has as its system nude mice bearing prostate 22Rv/HL2 tumor xenografts. Conditions: mouse, in vivo.
Another data set has as its system CALU-1. The format is cell-based, human.
The next data set deals with CALU-3. The format is cell-based, human.
In another data set the test system is A549. Format: cell-based, human.
The next data set deals with PC1 (jap). Format: cell-based, human.
The test system of a further data set is H520. Format: cell-based, human.
Another data set deals with HCC827. Format: cell-based, human.
Data set [7] concerns nude mice bearing prostate 22Rv/HL2. Conditions: mouse, in vivo.
Another data set deals with H1373. The format is cell-based, human.
For the next data set, the system named is H1703. The format is cell-based, human.
The test system of another data set is HCC364. Format: cell-based, human.
Another data set relates to HS27 adult BM stroma. Format: cell-based, human.
Data set [8] concerns nude mice bearing prostate 22Rv/HL2. Conditions: mouse, in vivo. The source holds these as a separate data set.
Another data set relates to H1666. The format is cell-based, human.
The subject of a further data set is BMMSC BM mesenchyme. Put plainly: Cytotoxicity normal tissue 72 hr. Format: cell-based, human.
For data set [9], the system named is MRC5 fetal lung fibroblast. Format: cell-based, human.
The test system of the next data set is H596. Format: cell-based, human.
Another data set has as its system SK-MES-1. Format: cell-based, human.
The next data set has as its system H1975. The format is cell-based, human.
Data set [10] deals with BEAS2B SV40 bronchial epithelium. Format: cell-based, human.
The test system of data set [11] is Cord Blood CFC (CFU-GM, BFU-E, CFU-C). The format is cell-based, human.
A further data set concerns EBC1. Format: cell-based, human.
Another data set concerns H2228. Format: cell-based, human.
A further data set deals with H1755. Format: cell-based, human.
A further data set relates to SK-LU-1. The format is cell-based, human.
The next data set has as its system HCC15. The format is cell-based, human.

Protocol for A204 rhabdomyosarcoma: (§1) After 72 hours, the cultures were pulsed with Alamar Blue overnight, and the fluorescent intensity of resulted cultures was measured by a Synergy H1 plate-reader (BioTek Inc).
Protocol for JEKO-1: as §1

Turning to `Cn1nnc2c(C(N)=O)ncn2c1=O` [Temozolomide], the IC50 (as a rule, the concentration that gives 50% inhibition) in data set [1] (5 highly drug resistant normal tissues) is no less than 20 µM; with CV1 renal fibroblasts it was greater than 100 µM; with MS-5 adult BM stroma, 5.59 µM; in the data set with A204 rhabdomyosarcoma, 569 µM; in data set [2], no less than 191 µM.

For `N[C@@H](Cc1ccc(N(CCCl)CCCl)cc1)C(=O)O` [Melphalan], the IC50 with JEKO-1 is 1.1 µM; in the data set on FBMC fetal BM stroma, greater than 10 µM.

For the compound `O=P1(N(CCCl)CCCl)NCCCO1` (stereo not shown) [cyclophosphamide], the tumor growth entry in data set [3] was “Tumor growth was not inhibited”.

`N.N.O=C([O-])C1(C(=O)[O-])CCC1.[Pt+2]` [Carboplatin]: the IC50 worked out at 25.5 µM in the data set on H647; 14.7 µM in the data set with CALU-6; 3.99 µM in the data set on H1781; 109 µM in the data set on H3122; 17.4 µM with H1395; 24.3 µM in the data set on H3255. For the same compound, the IC50 was 35.5 µM in data set [4]; no less than 32.8 µM in [1]; 69.7 µM in the data set with H1650; 1000 µM in data set [5]; 32.1 µM with PC9; 34.5 µM with HCC2450. The IC50 in the data set with H525 was 72.7 µM; in the data set on CALU-1 it was 96.2 µM; in the data set on CALU-3, 84.5 µM; with A549 it was 41.3 µM; in the data set with PC1 (jap) it was 57.4 µM; with H520 it was 75.6 µM. In addition, the IC50 in the data set with HCC827 was 138 µM; in the data set on H1373, 29.3 µM; in the data set with H1703 it was no less than 80 µM; with HCC364, 172 µM; in the data set with HS27 adult BM stroma, 35.3 µM; in the data set with H1666, 90.7 µM. Besides, the half-inhibitory concentration (IC50) was found to be 32.8 µM in the data set with BMMSC BM mesenchyme; 210 µM in data set [9]; 34.1 µM in the data set on H596; 160 µM in the data set on SK-MES-1; 60.2 µM in the data set on H1975; 120 µM in data set [10]. Also, the IC50 was 1.7 µM in data set [11]; 168 µM in the data set on EBC1; 8.62 µM with H2228; 41.4 µM in the data set on H1755; 42.4 µM in the data set on SK-LU-1; 173 µM in the data set with HCC15. The “pathological change in heart, liver, spleen, lung and kidney” value in [6] is recorded as “no apparent pathological change”. In data set [7], the BASO is 0.03 10^3/μL. Also, in data set [7], the EOS was 0.13 10^3/μL. Further, the LYM in data set [7] is 0.60 10^3/μL. Besides, in [7], the MONO is 0.07 10^3/μL. For the same compound, the NEU in data set [7] was 1.13 10^3/μL. The PLT in data set [7] is listed as 369 10^3/μL. Also, the RBC in [7] is recorded as 9.37 10^6/μL. Moreover, in data set [7], the WBC was 1.97 10^3/μL. This compound yielded an ALT in [8] of 64.85 U/L. The same compound came in with an AST in [8] of 119.15 U/L. The BUN in data set [8] worked out at 21.17 mg/dL. In data set [8], this compound showed a CREA of 0.31 mg/dL. The UA in [8] amounted to 1.97 mg/dL.
